This passage reports TGI and GI50 results from PubChem BioAssay (NCI).

Molecules are shown by their SMILES. Several values for one entry are separate records, joined by “and”; a condition that tells them apart may be missing. Equal values may be shown once.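 Following 48 hours of exposure in 96-well plates, responses at five concentrations were used to interpolate endpoints linearly. Here, GI50 denotes the concentration required for 50% inhibition of growth. TGI is the concentration that stops growth completely.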 Where only a bound is given, the exact number is not on record here.

In the first experiment the test system is NCI-H226 lung. The experiment in a line: NCI tumour cell line growth inhibition, 48 h.
`O=C(c1ccc(Cl)cc1)c1cnc(Nc2ccccc2Cl)s1`: the TGI is over 64.3 µM.
For `CCOC(=O)C(=Cc1cccc(Cl)c1)C(=O)OCC`, the GI50 was 2.49 µM and the TGI is 6.18 µM.
The corresponding values for `C=CC(=O)N1CCC(C2CCNc3c(C(N)=O)c(-c4ccc(Oc5ccccc5)cc4)nn32)CC1` (centres undefined) are 11.1 µM and 69.4 µM.
On the same counts, the results for `CCCCCCNC(=O)c1nc(-c2ccccc2)oc1Cc1ccc(OP(=O)(O)O)cc1` are 17 µM and 33.5 µM.
The corresponding values for `Cc1ccc(/C=C/c2c(C(=O)/C=C/c3ccc(C(F)(F)F)cc3)c(C)nc3ccccc23)cc1` are 1.5 µM and 3.03 µM.
As to `CCCn1c(N)c(C(=O)N/N=C(/C)c2cc3cccc(OC)c3o2)sc1=S`, the GI50 is 45.2 µM and the TGI is over 100 µM.
`N=c1ccn2c(n1)OC1C(O)C(CO)OC12` (centres undefined): the GI50 was 120 µM and > 79 µM; the TGI is over 719 µM.
Turning to `C[C@H]1Oc2cc(cnc2N)-c2c(nn(C)c2C#N)CN(C)C(=O)c2ccc(F)cc21`, the GI50 was 40.8 µM and the TGI is over 100 µM.
The corresponding values for `COc1ccccc1N1CCN(CCCn2c(=O)c3c(OC)nc(C)cc3c(=O)n2-c2ccccc2)CC1` are over 100 µM and over 100 µM.
In turn, `Cc1ccc(-c2nc3ccc([N+](=O)[O-])cc3[nH]2)cc1` had a TGI of over 100 µM.
As to `CC(=O)c1cc2c(o1)C(=O)c1ccccc1C2=O`, the GI50 was 0.226 µM and 0.212 µM; the TGI is 0.5 µM and 0.472 µM.
Regarding `CCN(CC)c1nc(-c2ccc(Cl)cc2Cl)nc2ccccc12`, the GI50 is 12.4 µM and the TGI was 31.2 µM.
On to `Cc1nc2ccccc2nc1-c1ccc(N=[N+]([O-])c2ccc(-c3nc4ccccc4nc3C)cc2)cc1`, for which the TGI is over 100 µM.

A further experiment has as its system SF-539 CNS. Description: NCI tumour cell line growth inhibition, 48 h.
Consider `O=C(c1ccc(Cl)cc1)c1cnc(Nc2ccccc2Cl)s1`, for which the TGI was 55.3 µM.
Take `CCOC(=O)C(=Cc1cccc(Cl)c1)C(=O)OCC`: the GI50 is 1.66 µM and the TGI was found to be 3.14 µM.
For `C=CC(=O)N1CCC(C2CCNc3c(C(N)=O)c(-c4ccc(Oc5ccccc5)cc4)nn32)CC1` (centres undefined), the GI50 was 13.5 µM and the TGI was determined as 43 µM.
Consider `CCCCCCNC(=O)c1nc(-c2ccccc2)oc1Cc1ccc(OP(=O)(O)O)cc1`, for which the GI50 was 16.9 µM and the TGI stood at 32.2 µM.
For `Cc1ccc(/C=C/c2c(C(=O)/C=C/c3ccc(C(F)(F)F)cc3)c(C)nc3ccccc23)cc1`, the GI50 was 1.79 µM and the TGI turned out to be 3.26 µM.
On the same counts, the results for `CCCn1c(N)c(C(=O)N/N=C(/C)c2cc3cccc(OC)c3o2)sc1=S` are 17.1 µM and 90.7 µM.
With `N=c1ccn2c(n1)OC1C(O)C(CO)OC12` (centres undefined), the GI50 was 31.9 µM and the TGI is over 1000 µM.
On the same counts, the results for `C[C@H]1Oc2cc(cnc2N)-c2c(nn(C)c2C#N)CN(C)C(=O)c2ccc(F)cc21` are 59.5 µM and over 100 µM.
On the same counts, the results for `COc1ccccc1N1CCN(CCCn2c(=O)c3c(OC)nc(C)cc3c(=O)n2-c2ccccc2)CC1` are over 100 µM and over 100 µM.
`Cc1ccc(-c2nc3ccc([N+](=O)[O-])cc3[nH]2)cc1`: the TGI is over 100 µM.
`CC(=O)c1cc2c(o1)C(=O)c1ccccc1C2=O`: the GI50 was 0.178 µM and 0.184 µM; the TGI is 0.317 µM and 0.328 µM.
With `CCN(CC)c1nc(-c2ccc(Cl)cc2Cl)nc2ccccc12`, the GI50 was 20.3 µM and the TGI amounted to 41.9 µM.
Turning to `Cc1nc2ccccc2nc1-c1ccc(N=[N+]([O-])c2ccc(-c3nc4ccccc4nc3C)cc2)cc1`, the TGI was over 100 µM.

For a further experiment, the system named is UO-31 renal. Description: NCI tumour cell line growth inhibition, 48 h.
Turning to `O=C(c1ccc(Cl)cc1)c1cnc(Nc2ccccc2Cl)s1`, the TGI was found to be 50.1 µM.
`CCOC(=O)C(=Cc1cccc(Cl)c1)C(=O)OCC`: the GI50 is 1840 nM and the TGI was found to be 4.12 µM.
On the same counts, the results for `C=CC(=O)N1CCC(C2CCNc3c(C(N)=O)c(-c4ccc(Oc5ccccc5)cc4)nn32)CC1` (centres undefined) are 1940 nM and 24.3 µM.
In the case of `CCCCCCNC(=O)c1nc(-c2ccccc2)oc1Cc1ccc(OP(=O)(O)O)cc1`, the GI50 is 12600 nM and the TGI is 26.8 µM.
Regarding `Cc1ccc(/C=C/c2c(C(=O)/C=C/c3ccc(C(F)(F)F)cc3)c(C)nc3ccccc23)cc1`, the GI50 was 1010 nM and the TGI was determined as 2.17 µM.
On the same counts, the results for `CCCn1c(N)c(C(=O)N/N=C(/C)c2cc3cccc(OC)c3o2)sc1=S` are 27700 nM and over 100 µM.
Take `N=c1ccn2c(n1)OC1C(O)C(CO)OC12` (centres undefined): the GI50 was 3080 nM and 355 nM; the TGI is over 1000 µM.
For the compound `C[C@H]1Oc2cc(cnc2N)-c2c(nn(C)c2C#N)CN(C)C(=O)c2ccc(F)cc21`, the GI50 was 13900 nM and the TGI turned out to be 60.2 µM.
The corresponding values for `COc1ccccc1N1CCN(CCCn2c(=O)c3c(OC)nc(C)cc3c(=O)n2-c2ccccc2)CC1` are over 100000 nM and over 100 µM.
Compound `Cc1ccc(-c2nc3ccc([N+](=O)[O-])cc3[nH]2)cc1` had a TGI of over 100 µM.
For `CC(=O)c1cc2c(o1)C(=O)c1ccccc1C2=O`, the GI50 is 219 nM and 217 nM; the TGI is 0.57 µM and 0.531 µM.
Turning to `CCN(CC)c1nc(-c2ccc(Cl)cc2Cl)nc2ccccc12`, the GI50 was 24900 nM and the TGI was over 90.5 µM.
For `Cc1nc2ccccc2nc1-c1ccc(N=[N+]([O-])c2ccc(-c3nc4ccccc4nc3C)cc2)cc1`, the TGI was over 100 µM.

Another experiment has as its system NCI-H522 lung. The experiment in a line: NCI tumour cell line growth inhibition, 48 h.
As for `O=C(c1ccc(Cl)cc1)c1cnc(Nc2ccccc2Cl)s1`, the TGI worked out at 53.1 µM.
Regarding `CCOC(=O)C(=Cc1cccc(Cl)c1)C(=O)OCC`, the GI50 is 1.53 µM and the TGI was determined as 3.21 µM.
On the same counts, the results for `C=CC(=O)N1CCC(C2CCNc3c(C(N)=O)c(-c4ccc(Oc5ccccc5)cc4)nn32)CC1` (centres undefined) are 4.93 µM and 22.7 µM.
The corresponding values for `CCCCCCNC(=O)c1nc(-c2ccccc2)oc1Cc1ccc(OP(=O)(O)O)cc1` are 16.1 µM and 34.5 µM.
The corresponding values for `Cc1ccc(/C=C/c2c(C(=O)/C=C/c3ccc(C(F)(F)F)cc3)c(C)nc3ccccc23)cc1` are 1.33 µM and 4.35 µM.
Regarding `CCCn1c(N)c(C(=O)N/N=C(/C)c2cc3cccc(OC)c3o2)sc1=S`, the GI50 was 51.6 µM and the TGI is over 100 µM.
As to `N=c1ccn2c(n1)OC1C(O)C(CO)OC12` (centres undefined), the GI50 was over 100 µM and the TGI was over 1000 µM.
On the same counts, the results for `C[C@H]1Oc2cc(cnc2N)-c2c(nn(C)c2C#N)CN(C)C(=O)c2ccc(F)cc21` are 57 µM and over 100 µM.
Regarding `COc1ccccc1N1CCN(CCCn2c(=O)c3c(OC)nc(C)cc3c(=O)n2-c2ccccc2)CC1`, the GI50 is over 100 µM and the TGI was over 100 µM.
Compound `Cc1ccc(-c2nc3ccc([N+](=O)[O-])cc3[nH]2)cc1` displayed a TGI of over 100 µM.
Regarding `CC(=O)c1cc2c(o1)C(=O)c1ccccc1C2=O`, the GI50 is 0.19 µM and 0.194 µM; the TGI was 0.413 µM and 0.495 µM.
On to `CCN(CC)c1nc(-c2ccc(Cl)cc2Cl)nc2ccccc12`, for which the GI50 is 29.2 µM and the TGI was over 74.9 µM.
`Cc1nc2ccccc2nc1-c1ccc(N=[N+]([O-])c2ccc(-c3nc4ccccc4nc3C)cc2)cc1`: the TGI was over 100 µM.

For the next experiment, the system named is IGROV1 ovarian. Description: NCI tumour cell line growth inhibition, 48 h.
As for `O=C(c1ccc(Cl)cc1)c1cnc(Nc2ccccc2Cl)s1`, the TGI amounted to 74.2 µM.
Take `CCOC(=O)C(=Cc1cccc(Cl)c1)C(=O)OCC`: the GI50 is 2.4 µM and the TGI was found to be 7.85 µM.
The corresponding values for `C=CC(=O)N1CCC(C2CCNc3c(C(N)=O)c(-c4ccc(Oc5ccccc5)cc4)nn32)CC1` (centres undefined) are 0.796 µM and 16.9 µM.
On to `CCCCCCNC(=O)c1nc(-c2ccccc2)oc1Cc1ccc(OP(=O)(O)O)cc1`, for which the GI50 is 15.2 µM and the TGI was determined as 31.2 µM.
On the same counts, the results for `Cc1ccc(/C=C/c2c(C(=O)/C=C/c3ccc(C(F)(F)F)cc3)c(C)nc3ccccc23)cc1` are 0.6 µM and 2.02 µM.
On the same counts, the results for `CCCn1c(N)c(C(=O)N/N=C(/C)c2cc3cccc(OC)c3o2)sc1=S` are 48.2 µM and over 100 µM.
Turning to `N=c1ccn2c(n1)OC1C(O)C(CO)OC12` (centres undefined), the GI50 was 4.02 µM and the TGI was over 1000 µM.
The corresponding values for `C[C@H]1Oc2cc(cnc2N)-c2c(nn(C)c2C#N)CN(C)C(=O)c2ccc(F)cc21` are 28.1 µM and over 100 µM.
Consider `COc1ccccc1N1CCN(CCCn2c(=O)c3c(OC)nc(C)cc3c(=O)n2-c2ccccc2)CC1`, for which the GI50 is over 100 µM and the TGI was over 100 µM.
As for `Cc1ccc(-c2nc3ccc([N+](=O)[O-])cc3[nH]2)cc1`, the TGI is over 100 µM.
As to `CC(=O)c1cc2c(o1)C(=O)c1ccccc1C2=O`, the GI50 was 0.644 µM and 0.409 µM; the TGI is 1.63 µM and 1.56 µM.
`CCN(CC)c1nc(-c2ccc(Cl)cc2Cl)nc2ccccc12`: the GI50 was 25.9 µM and the TGI is over 100 µM.
